Reference: patent US20060030586A1, “Method and health food for preventing and/or alleviating psychiatric disorder, and/or for effectuating sedation” (Education Center of Traditional Chinese Medicine Co., priority 2004, published 2006)

Assays:
mice [1] = assay: Locomotor activity (ultromotivity) measurement, evaluation of sedative action; format: in vivo; conditions: for Significant difference test of ultromotivity: Tukey's method; for Ultromotivity (count) 60 minutes / Significant difference test of ultromotivity: 60 minutes
Method: (§1) In the following Examples, all extracts and drugs used were dissolved in physiological saline before use for i.p. administration and the dose was 0.1 ml of physiological saline per 10 g of mouse body weight in either case. All extracts and drugs were suspended in physiological saline containing 1% carboxymethylcellulose before use for oral administration and the dose was 0.1 ml of 1% carboxymethylcellulose-containing physiological saline suspension per 10 g of mouse body weight in either case. Male ICR mice (Japan SLC) having a body weight of 25 to 30 g were used in the tests below unless otherwise stated, and were fed in advance at a room temperature of 23±1° C. and a relative humidity of 55±5% in the environment of a 12-hour-light and 12-hour-dark cycle at 7 and 19 for 3 to 5 days. The mice were allowed to have water and feed freely.
Twenty five mice were grouped into five groups each having five mice, to which 5 mg/kg of N-methylcoclaurine hydrochloride (treatment group 1-1: i.p. administration), 50 mg/kg of neferine hydrochloride (treatment group 1-2: oral administration, and treatment group 1-3: i.p. administration), 50 mg/kg of liensinine hydrochloride (treatment group 1-4: oral administration), or physiological saline (negativity control group 1-1: i.p. administration) was administered. The ultromotivity of the mice was analyzed by using a locomotor activity monitoring system (NS-AS01, Neuroscience Inc.). The ultromotivity measurements were performed at an interval of 5 minutes for 60 minutes, and the ultromotivity was judged from the count at each measuring time.
Similar tests were conducted by i.p. administration of 25 mg/kg of N-norarmepavine (treatment group 1-5, n=6), 25 mg/kg of O,O-dimethylcoclaurine (treatment group 1-6, n=5), 10 mg and 25 mg/kg of armepavine (respectively, treatment group 1-7, n=6, and treatment group 1-8, n=6), 10 mg and 25 mg/kg of O-methylarmepavine (respectively, treatment group 1-9, n=6, and treatment group 1-10, n=6), and physiological saline (negativity control group 1-2, n=5). The ultromotivity measurements were performed at an interval of five minutes for 60 minutes, and the ultromotivity was subjected to a significant difference test (Tukey's method) by using the counts at respective measuring times.
(§2) Tests were performed by using mice administered intraperitoneally with 25 mg/kg of neferine hydrochloride (treatment group 7-1, n=6), 25 mg/kg of liensinine hydrochloride (treatment group 7-2, n=6), and physiological saline (negativity control group, n=6) as well as 5 mg/kg of diazepam (positive control group, n=6) and a rotarod equipment (Ugo Basile, Italy) and a locomotor activity monitoring system (NS-ASO1, Neuroscience Inc.). The rotarod test was performed by placing a mouse on a rod having a diameter of 4 cm rotating at a speed of 8 rpm 15 minutes after drug administration and observing whether the mouse can stay on the rod without falling for three minutes. The individuals that had fallen from the rotating rod in the period of 3 minutes were judged that they are with motor coordination disorder. […] In addition, the ultromotivity measurements were performed at an interval of five minutes for 60 minutes, and the ultromotivity results were subjected to a significant difference test (Tukey's method) by using the counts at respective measuring times.

mice [2] = assay: Thiopental sleep-enhancing test; format: in vivo; conditions: 15 minutes before thiopental 60 mg/kg i.p.
Method: as §1
Actions on thiopental sleep by various compounds were evaluated. Thiopental dissolved in physiological saline was administered intraperitoneally into mice at a dose of 60 mg/kg. 50 mg/kg of neferine hydrochloride (treatment group 2-1, n=9), 50 mg/kg of isoliensinine hydrochloride (treatment group 2-2, n=9), 100 mg/kg of lien tzehsin 2 extract hydrochloride (treatment group 2-3, n=9), only physiological saline (negativity control group, n=6), or 1 mg/kg of diazepam (positive control group, n=9) was administered intraperitoneally into the mice 15 minutes before the thiopental administration. The time when the righting reflex of the mice disappeared after thiopental administration was designated as sleep-induction time, while total sleep time was calculated from the induction time and the time when the righting reflex was restored.

mice [3] = assay: Rotarod test (muscle relaxation, motor coordination); format: in vivo; conditions: n=6, 8 rpm, 3 minutes, 15 minutes after administration
Method: as §1, §2

mice [4] = assay: Suppression of methamphetamine-enhanced ultromotivity; format: in vivo; conditions: for Ultromotivity (count): hydrochloride, methamphetamine 1 mg/kg 15 minutes later, 60 minutes
Method: as §1
The effects of neferine on suppression of the enhancement of ultromotivity by methamphetamine were evaluated.
Fifteen mice were grouped into three groups of five mice, to which 50 mg/kg of neferine hydrochloride (treatment group 3-1), 100 mg/kg of the same (treatment group 3-2), and only physiological saline (negativity control group) were administered respectively intraperitoneally. Methamphetamine (1 mg/kg) was administered 15 minutes after the administration. After administration of methamphetamine, each of the mice was placed in a transparent polycarbonate cage (22.5 cm×33.8 cm×14.0 cm), where the ultromotivity of the mouse was analyzed for 60 minutes by using a locomotor activity analyzer (NS-AS01, Neuroscience Inc.).

mice [5] = assay: Forced swimming test (Porsolt); format: in vivo; conditions: 100 mg/kg i.p., hydrochloride, 6-minute period
Method: as §1
Forced swimming tests were conducted according to the method of Porsolt et al. A mouse was placed in a cylindrical glass water tank of 10 cm in diameter and 25 cm in height (water temperature: 23° C.) filled with water to a depth of 10 cm and forced to swim therein. […] Each mouse was forced to swim 15 and 30 minutes after administration, and the immobile times during the 6-minute periods immediately after forced swimming were determined. […]

mice [6] = assay: Elevated plus-maze test; format: in vivo; conditions: 100 mg/kg i.p., hydrochloride, 30 minutes after administration, 5 minutes
Method: In the following Examples, all extracts and drugs used were dissolved in physiological saline before use for i.p. administration and the dose was 0.1 ml of physiological saline per 10 g of mouse body weight in either case. All extracts and drugs were suspended in physiological saline containing 1% carboxymethylcellulose before use for oral administration and the dose was 0.1 ml of 1% carboxymethylcellulose-containing physiological saline suspension per 10 g of mouse body weight in either case. […]
An elevated plus-maze (Neuroscience Inc.) consisting of 2 arms without high walls and 2 arms enclosed by high walls, which were crossing perpendicular to each other, was used for evaluation. A mouse was placed on the platform at the center in a position facing toward an arm enclosed by high walls, and the number of times the mouse entered into both arms and the period of the mouse staying in the arms without walls were determined during a period of 5 minutes. The results were evaluated by the ratios of the number of the mouse entering into the arms with walls with respect to the total number of entering into both arms (%) and by the period of the mouse staying in the arms without walls (%). […]

mice [7] = assay: Glass ball-covering behavior test; format: in vivo; conditions: hydrochloride, 20 balls
Method: as §1
In evaluating glass ball-covering behavior, wood chip for breeding (beta chip) (Oriental Yeast Co., Ltd.) was placed in the transparent cage described in Example 3 to a depth of 5 cm, on which 20 glass balls (diameter: 1.5 cm) were placed evenly.
Twenty-one mice were grouped into three groups of seven mice, to which 25 mg/kg of neferine hydrochloride (treatment group 6-1), 50 mg/kg of the same (treatment group 6-2), and physiological saline (negativity control group) were administered intraperitoneally, respectively. A mouse was placed in the case 15 minutes after administration, and the number of the glass balls not covered with the wood chip was counted by visual observation at an interval of 10 minutes. The number of balls having ⅔ of the surface thereof being embedded in the wood chip was counted as the criteria for judgment.

mice [8] = conditions: Ito et al.; cited from earlier work
[9] = Seibu et al., no specific data; cited from earlier work

SMILES: COc1cc2c(cc1O)[C@@H](Cc1ccc(O)cc1)N(C)CC2 [N-methylcoclaurine]
- Sedative activity compared with neferine and liensinine (in words) (mice [1]; 5 mg/kg i.p. versus 50 mg/kg): extremely higher activity
- Ultromotivity (count) 30 minutes (mice [1]; 5 mg/kg i.p., hydrochloride): 250 count
- Ultromotivity (count) 60 minutes (mice [1]; 5 mg/kg i.p., hydrochloride): 250 count

SMILES: CN1C(=O)CN=C(c2ccccc2)c2cc(Cl)ccc21 [diazepam, reference compound]
- Significant difference test of ultromotivity (mice [1]; 5 mg/kg i.p.): P < 0.005
- Total sleep time (mice [2]; 1 mg/kg i.p.): 130 min
- Number of individuals fallen (mice [3]; 5 mg/kg i.p.): 5

SMILES: COc1ccc(C[C@@H]2c3cc(Oc4cc(C[C@@H]5c6cc(O)c(OC)cc6CCN5C)ccc4O)c(OC)cc3CCN2C)cc1 [isoliensinine]
- Total sleep time (mice [2]; 50 mg/kg i.p., hydrochloride): 120 min

SMILES: COc1cc2c(cc1OC)[C@@H](Cc1ccc(O)c(Oc3cc4c(cc3OC)CCN(C)[C@@H]4Cc3ccc(O)cc3)c1)N(C)CC2 [liensinine]
- Significant difference test of ultromotivity (mice [1]; 25 mg/kg i.p., hydrochloride): In declining
- Ultromotivity (count) 30 minutes (mice [1]; 50 mg/kg oral, hydrochloride): 600 count
- Ultromotivity (count) 60 minutes (mice [1]; 50 mg/kg oral, hydrochloride): 800 count
- Number of individuals fallen (mice [3]; 25 mg/kg i.p., hydrochloride): 0

SMILES: COc1ccc(C[C@@H]2c3cc(Oc4cc(C[C@@H]5c6cc(OC)c(OC)cc6CCN5C)ccc4O)c(OC)cc3CCN2C)cc1 [neferine]
- Significant difference test of ultromotivity (mice [1]; 25 mg/kg i.p., hydrochloride): P < 0.01
- Ultromotivity (count) 30 minutes (mice [1]; 50 mg/kg i.p., hydrochloride): 500 count
- Ultromotivity (count) 60 minutes (mice [1]; 50 mg/kg i.p., hydrochloride): 760 count
- Ultromotivity (count) 30 minutes (mice [1]; 50 mg/kg oral, hydrochloride): 500 count
- Ultromotivity (count) 60 minutes (mice [1]; 50 mg/kg oral, hydrochloride): 750 count
- Total sleep time (mice [2]; 50 mg/kg i.p., hydrochloride): 100 min
- Ultromotivity (count) (mice [4]; 50 mg/kg i.p.): 2600 count
- Ultromotivity (count) (mice [4]; 100 mg/kg i.p.): 1800 count
- Action on ultromotivity enhancement by methamphetamine (in words) (mice [4]; 50 and 100 mg/kg i.p.): obvious action suppressing the ultromotivity enhancement by methamphetamine
- Immobile time (sec) After 15 minutes (mice [5]; 15 minutes after administration): 165 s
- Immobile time (sec) After 30 minutes (mice [5]; 30 minutes after administration): 170 s
- Staying period (%) (mice [6]; arms without walls): 33%
- Invasion times (%) (mice [6]; ratio to total entries): 70%
- Number of glass balls not covered with wood chip After 10 minutes (mice [7]; 25 mg/kg i.p.): 4
- Number of glass balls not covered with wood chip After 20 minutes (mice [7]; 25 mg/kg i.p.): 7
- Number of glass balls not covered with wood chip After 30 minutes (mice [7]; 25 mg/kg i.p.): 10
- Number of glass balls not covered with wood chip After 10 minutes (mice [7]; 50 mg/kg i.p.): 3
- Number of glass balls not covered with wood chip After 20 minutes (mice [7]; 50 mg/kg i.p.): 6
- Number of glass balls not covered with wood chip After 30 minutes (mice [7]; 50 mg/kg i.p.): 9
- Number of individuals fallen (mice [3]; 25 mg/kg i.p., hydrochloride): 0
- Locomotor activity-inhibiting action (in words) (mice [8]): exhibited a locomotor activity-inhibiting action
- Antihypertensive action (in words) [9]: exhibited an antihypertensive action
